Measurements: US11648254B2 (Kumquat Biosciences Inc., priority 2021, dated 2023)
Like-named read-outs stand apart in the source and are kept apart here.

Tests used:
SOS1 = SOS1 (Homo sapiens (Human), UniProt Q07889); test: Ras-SOS interaction assay (HTRF); type: biochemical
[1] = test system: NCI-H1975 cells (EGFR T790M L858R); test: EGFR-SOS cellular inhibition assay (CellTiter-Glo, 3D); type: cell-based; conditions: Homo sapiens
[2] = test system: MIA PaCa-2 cells (K-Ras G12C); test: Ras-SOS cellular growth inhibition assay (CellTiter-Glo, 3D); type: cell-based; conditions: Homo sapiens
Procedure, shortened: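 MIA PaCa-2 cells grown in ultra-low-attachment plates (3D) in DMEM/Ham's F12 with 10% FCS and 2.5% horse serum, treated the day after seeding with a 9-point 3-fold compound series for about 5 days. Viability by CellTiter-Glo luminescence; IC50 from four-parameter fit.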

[3] = K-RasG13D utilized, read-out: IC50 inhibition of SOS
[4] = K-RasG13D, read-out: IC50 value against SOS1
[5] = 120 h, NCI-H1975, 3D proliferation, about 5 days, read-out: Bio-Cell-Prolif-3D (H1975 IC50)
[6] = NCI-H1975, EGFR T790M L858R, read-out: IC50 in inhibiting growth of NCI-H1975 cell line
[7] = MIA PaCa-2, 120 h, MIA PaCa-2, 3D proliferation, about 5 days, read-out: Bio-Cell-Prolif-3D (MiaPaca2 IC50)
[8] = MIA PaCa-2, MIA PaCa-2, read-out: IC50 in inhibiting MIA PaCa-2 cell growth

Sequence of SOS1 (Q07889 564-1049): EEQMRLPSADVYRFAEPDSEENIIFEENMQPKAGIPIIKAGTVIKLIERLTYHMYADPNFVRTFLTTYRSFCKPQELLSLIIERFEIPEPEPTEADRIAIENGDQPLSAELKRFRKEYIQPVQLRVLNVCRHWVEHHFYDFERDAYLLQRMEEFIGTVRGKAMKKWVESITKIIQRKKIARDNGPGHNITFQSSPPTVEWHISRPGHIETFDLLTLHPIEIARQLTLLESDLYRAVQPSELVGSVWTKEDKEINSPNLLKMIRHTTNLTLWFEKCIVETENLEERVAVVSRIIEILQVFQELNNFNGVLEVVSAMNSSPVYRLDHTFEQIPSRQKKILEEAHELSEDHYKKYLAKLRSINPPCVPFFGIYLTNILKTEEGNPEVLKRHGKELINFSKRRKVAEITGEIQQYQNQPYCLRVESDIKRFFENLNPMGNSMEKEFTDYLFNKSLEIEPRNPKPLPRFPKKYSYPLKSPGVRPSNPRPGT

SMILES	IC50 (SOS1; [3]) [nM]	IC50 (SOS1; [4]) [nM]	IC50 [1, 5] [nM]	IC50 [1, 6] [nM]	IC50 [2, 7] [nM]	IC50 [2, 8] [nM]
Cc1nc(N[C@H](C)c2cccc(C(F)(F)[C@H](C)O)c2F)c2cc(C3(C#N)CC3)c(Cl)nc2n1 [Compound 258, 1-(7-chloro-4-(((R)-1-(3-((S)-1,1-difluoro-2-hydroxypropyl)-2-fluorophenyl)ethyl)amino)-2-methylpyrido[2,3-d]pyrimidin-6-yl)cyclopropane-1-carbonitrile]	< 100	< 50	≤ 1000	< 500	≤ 1000	< 500
Cc1nc(N[C@H](C)c2cccc(C(F)F)c2F)c2cc(N3CCS(=O)(=O)CC3)c(Cl)nc2n1 [Compound 259, (R)-4-(7-chloro-4-((1-(3-(difluoromethyl)-2-fluorophenyl)ethyl)amino)-2-methylpyrido[2,3-d]pyrimidin-6-yl)thiomorpholine 1,1-dioxide]	< 100	< 50	≤ 1000	< 500	≤ 1000	< 500
Cc1c([C@@H](C)Nc2ncnc3nc(Cl)c(C4CCS(=O)(=O)CC4)cc23)cccc1C(F)(F)F [Compound 260, (R)-4-(7-chloro-4-((1-(2-methyl-3-(trifluoromethyl)phenyl)ethyl)amino)pyrido[2,3-d]pyrimidin-6-yl)tetrahydro-2H-thiopyran 1,1-dioxide]	< 100	< 50	≤ 1000	< 500	≤ 1000	< 500
C[C@@H](Nc1ncnc2nc(Cl)c(N3CCS(=O)(=O)CC3)cc12)c1cccc(C(F)F)c1F [Compound 261, (R)-4-(7-chloro-4-((1-(3-(difluoromethyl)-2-fluorophenyl)ethyl)amino)pyrido [2,3-d]pyrimidin-6-yl)thiomorpholine 1,1-dioxide]	< 100	< 50	≤ 1000	< 500	≤ 1000	< 500
Cc1nc(N[C@H](C)c2cccc(C(F)(F)F)c2F)c2cc(C3CCS(=O)(=O)CC3)c(Cl)nc2n1 [Compound 262, (R)-4-(7-chloro-4-((1-(2-fluoro-3-(trifluoromethyl)phenyl)ethyl)amino)-2-methylpyrido[2,3-d]pyrimidin-6-yl)tetrahydro-2H-thiopyran 1,1-dioxide]	< 100	< 50	≤ 1000	< 500	≤ 1000	
COc1nc2ncnc(N[C@H](C)c3cccc(C(F)(F)C4CCN(C(C)C)CC4)c3F)c2cc1N1CCN(C(C)C)CC1 [Compound 263, (R)—N-(1-(3-(difluoro(1-isopropylpiperidin-4-yl)methyl)-2-fluorophenyl)ethyl)-6-(4-isopropylpiperazin-1-yl)-7-methoxypyrido[2,3-d]pyrimidin-4-amine]	< 100	< 50	≤ 1000	< 500	≤ 1000	< 500
C[C@H](O)C(F)(F)c1cccc([C@@H](C)Nc2ncnc3nc(Cl)c(C4(C#N)CC4)cc23)c1 [Compound 265, 1-(7-chloro-4-(((R)-1-(3-((S)-1,1-difluoro-2-hydroxypropyl)phenyl)ethyl)amino)pyrido[2,3-d]pyrimidin-6-yl) cyclopropane-1-carbonitrile]	< 100	< 50	≤ 1000	< 500	≤ 1000	< 500
CC(C)N1CCC(c2cc3c(N[C@H](C)c4cccc(C(F)(F)C5CCN(C(C)C)CC5)c4)ncnc3nc2Cl)CC1 [Compound 268, (R)-7-chloro-N-(1-(3-(difluoro(1-isopropylpiperidin-4-yl)methyl)phenyl)ethyl)-6-(1-isopropylpiperidin-4-yl)pyrido[2,3-d] pyrimidin-4-amine]	< 100	< 50	≤ 1000	< 500	≤ 1000	< 500
Cc1nc(N[C@H](C)c2cccc(C(F)(F)C3CCN(C(C)C)CC3)c2)c2cc(C3CCN(C(C)C)CC3)c(Cl)nc2n1 [Compound 269, (R)-7-chloro-N-(1-(3-(difluoro(1-isopropylpiperidin-4-yl)methyl)phenyl)ethyl)-6-(1-isopropylpiperidin-4-yl)-2-methylpyrido[2,3-d] pyrimidin-4-amine]	< 100	< 50	≤ 1000	< 500	≤ 1000	< 500
COc1nc2nc(OC[C@H]3CCCN3C)nc(N[C@H](C)c3cccc(C(F)F)c3F)c2cc1C1(C#N)CC1 [Compound 270, 1-(4-(((R)-1-(3-(difluoromethyl)-2-fluorophenyl)ethyl)amino)-7-methoxy-2-(((R)-1-methylpyrrolidin-2-yl)methoxy)pyrido [2,3-d]pyrimidin-6-yl)cyclopropane-1-carbonitrile]	< 100	< 50	≤ 1000	< 500	≤ 1000	< 500

The next lines start with the values.

IC50 (SOS1; [3]) [nM]	IC50 (SOS1; [4]) [nM]	IC50 [1, 5] [nM]	IC50 [1, 6] [nM]	IC50 [2, 7] [nM]	IC50 [2, 8] [nM]	SMILES
< 100	< 50	≤ 1000	< 500	≤ 1000	< 500	Cc1nc(N[C@H](C)c2cccc(C(F)(F)F)c2F)c2cc(C3CCS(=O)(=O)CC3)c(OC3CN(C)C3)nc2n1 [Compound 248, (R)-4-(4-((1-(2-fluoro-3-(trifluoromethyl)phenyl)ethyl)amino)-2-methyl-7-((1-methylazetidin-3-yl)oxy)pyrido[2,3-d]pyrimidin-6-yl)tetrahydro-2H-thiopyran 1,1-dioxide]
< 100	< 50	≤ 1000	< 500	1000 to 10000		Cc1nc(N[C@H](C)c2cccc(C(F)(F)F)c2C)c2cc(C3CCS(=O)(=O)CC3)c(OC3COC3)nc2n1 [Compound 249, (R)-4-(2-methyl-4-((1-(2-methyl-3-(trifluoromethyl)phenyl)ethyl)amino)-7-(oxetan-3-yloxy)pyrido[2,3-d]pyrimidin-6-yl)tetrahydro-2H-thiopyran 1,1-dioxide]
< 100	< 50	1000 to 10000		> 10000		Cc1nc(N[C@H](C)c2cccc(C(F)F)c2F)c2cc(C3CCS(=N)(=O)CC3)c(OCCN(C)C)nc2n1 (stereo partly drawn) [Compound 250, (R)-4-(4-((1-(3-(difluoromethyl)-2-fluorophenyl)ethyl)amino)-7-(2-(dimethylamino)ethoxy)-2-methylpyrido[2,3-d]pyrimidin-6-yl)-1-iminohexahydro-116-thiopyran 1-oxide]
< 100	< 50	≤ 1000	< 500	1000 to 10000		C[C@@H](Nc1ncnc2nc(OCCN(C)C)c(C3CCS(=O)(=O)CC3)cc12)c1cccc(C(F)F)c1F [Compound 251, (R)-4-(4-((1-(3-(difluoromethyl)-2-fluorophenyl)ethyl)amino)-7-(2-(dimethylamino)ethoxy)pyrido[2,3-d]pyrimidin-6-yl)tetrahydro-2H-thiopyran 1,1-dioxide]
< 100	< 50	≤ 1000		1000 to 10000		Cc1nc(N[C@H](C)c2cccc(C(F)F)c2F)c2cc(C3CCN(C)CC3)c(OC3CN(C)C3)nc2n1 [Compound 252, (R)-N-(1-(3-(difluoromethyl)-2-fluorophenyl)ethyl)-2-methyl-7-((1-methylazetidin-3-yl)oxy)-6-(1-methylpiperidin-4-yl)pyrido[2,3-d]pyrimidin-4-amine]
< 100	< 50	1000 to 10000		1000 to 10000		Cc1nc(N[C@H](C)c2cccc(C(F)F)c2F)c2cc(C3CCN(C)CC3)c(OC3CNC3)nc2n1 [Compound 253, (R)-7-(azetidin-3-yloxy)-N-(1-(3-(difluoromethyl)-2-fluorophenyl)ethyl)-2-methyl-6-(1-methylpiperidin-4-yl)pyrido[2,3-d] pyrimidin-4-amine]
< 100	< 50	1000 to 10000		1000 to 10000		CCN1CCN(c2cc3c(N[C@H](C)c4cccc(C(F)F)c4F)nc(C)nc3nc2OC2CN(C)C2)CC1 [Compound 254, (R)-N-(1-(3-(difluoromethyl)-2-fluorophenyl)ethyl)-6-(4-ethylpiperazin-1-yl)-2-methyl-7-((1-methylazetidin-3-yl)oxy)pyrido[2,3-d]pyrimidin-4-amine]
< 100	< 50	≤ 1000		1000 to 10000		CCN1CCN(c2cc3c(N[C@H](C)c4cccc(C(F)F)c4F)nc(C)nc3nc2OCCN(C)C)CC1 [Compound 255, (R)-N-(1-(3-(difluoromethyl)-2-fluorophenyl)ethyl)-7-(2-(dimethylamino)ethoxy)-6-(4-ethylpiperazin-1-yl)-2-methylpyrido[2,3-d] pyrimidin-4-amine]
< 100	< 50	≤ 1000	< 500	≤ 1000	< 500	Cc1nc(N[C@H](C)c2cccc(C(F)(F)F)c2F)c2cc(N3CCS(=O)(=O)CC3)c(Cl)nc2n1 [Compound 257, (R)-4-(7-chloro-4-((1-(2-fluoro-3-(trtfluoromethyl)phenyl)ethyl)amino)-2-methylpyrido[2,3-d]pyrimidin-6-yl)thiomorpholine 1,1-dioxide]
